Results reported in patent US9480668B2, “Blood flow promoting agent” (KYOWA HAKKO BIO CO., LTD., priority 2012, dated 2016).

Experiments:
[1] = tested on: thoracic aorta isolated from a rat; test: Magnus method: vasodilatory potency on aortic ring, relaxation of Norepinephrine 0.3 μM-induced contraction; settings: L-citrulline 1000 μM, single addition; vasoconstriction induced by 0.3 μM Norepinephrine
[2] = sublingual treatment, concentration-dependent; non-patent document 3; cited from earlier work

Row | Compound | vascular relaxation rate (%) [1] | concentration of capsaicin solution producing a feeling of strong pain [2]
1 | NC(=O)NCCC[C@H](N)C(=O)O [L-citrulline] | 15-20% | 
2 | COc1cc(CNC(=O)CCCCC=CC(C)C)ccc1O [capsaicin, 8-methyl-N-vanillyl-6-nonenamide] |  | not less than 75 μM
